# Test results reported in patent US4889859A, “Pyrido[2,3-d]pyrimidine derivatives” (priority 1988, dated 1989).
# How the values were obtained:
# [1] = literature; cited from earlier work
# [2] = test system: mouse L1210 leukemia; conditions: literature; cited from earlier work
# [3] = test system: human leukemia cell line (CCRF-CEM); experiment: IC50 determined in whole cell human leukemia cell line (CCRF-CEM); type: cell-based
# Excerpt: Representative IC50 values determined in whole cell human leukemia cell line (CCRF-CEM) are as follows: […]
# [4] = test system: dihydrofolate reductase; conditions: literature; cited from earlier work
# [5] = test system: C3H mammary adenocarcinoma; experiment: C3H mammary adenocarcinoma implanted in mice, intraperitoneal treatment for five days; type: in vivo; conditions: intraperitoneally for five days
# Procedure: At a dosage of 100 mg/kg, 80% inhibition was observed.
# [6] = test system: 6C3HED lymphosarcoma; experiment: 6C3HED lymphosarcoma in mice; type: in vivo
structure (smiles),measurement,setting,value
Nc1nc(N)c2nc(CCc3ccc(C(=O)N[C@@H](CCC(=O)O)C(=O)O)cc3)cnc2n1 [10-Deazaaminopterin],antimetabolic activity,[1],highly active
"Nc1nc(N)c2cc(CCc3ccc(C(=O)N[C@@H](CCC(=O)O)C(=O)O)cc3)ccc2n1 [5,8,10-trideazaaminopterin]",activity against mouse L1210 leukemia,[2],exhibits activity
"Nc1nc(O)c2c(n1)NCC(CCc1ccc(F)c(C(=O)N[C@@H](CCC(=O)O)C(=O)O)c1)C2 (stereo partly drawn) [D, N-(2-fluoro-5-[2-(2-amino-4-hydroxy-5,6,7,8-tetrahydropyrido[2,3-d]pyrimidin-6-yl)ethyl]benzoyl)-L-glutamic acid]",IC50,[3],0.1 µg/mL
"CN(Cc1cnc2nc(N)nc(N)c2n1)c1ccc(C(=O)N[C@@H](CCC(=O)O)C(=O)O)cc1 [Amethopterin, 10-methylaminopterin]",dihydrofolate reductase inhibition,[4],inhibits dihydrofolate reductase
"Nc1nc2ccc(CCc3ccc(C(=O)N[C@@H](CCC(=O)O)C(=O)O)cc3)nc2c(=O)[nH]1 [8,10-Dideazafolic acid]",dihydrofolate reductase inhibition,[4],only marginally effective
"Nc1nc(O)c2c(n1)NCC(CCc1cccc(C(=O)N[C@@H](CCC(=O)O)C(=O)O)c1)C2 (stereo partly drawn) [A, N-(3-[2-(2amino-4-hydroxy-5,6,7,8-tetrahydropyrido[2,3-d]pyrimidin-6-yl)ethyl]benzoyl)-L-glutamic acid]",IC50,[3],0.015 µg/mL
"Nc1nc(O)c2c(n1)NCC(CCc1ccc(C(=O)N[C@@H](CCC(=O)O)C(=O)O)c(F)c1)C2 (stereo partly drawn) [Compound H, N-(2-fluoro-4-[2-(2-amino-4-hydroxy-5,6,7,8-tetrahydropyrido[2,3-d]pyrimidin-6-yl)ethyl]benzoyl)-L-glutamic acid]",IC50,[3],0.004 µg/mL
same,toxicity,[5]; 30 mg/kg and 100 mg/kg,No toxicity was observed
same,inhibition,[5]; 30 mg/kg,72%
same,inhibition,[5]; 100 mg/kg,80%
same,% INHIBITION,[6]; dose 25 (MK/KG),94%
same,TOXIC/TOTAL,[6]; dose 25 (MK/KG),0/9
same,% INHIBITION,[6]; dose 50 (MK/KG),95%
same,TOXIC/TOTAL,[6]; dose 50 (MK/KG),0/10
same,% INHIBITION,[6]; dose 100 (MK/KG),100%
same,TOXIC/TOTAL,[6]; dose 100 (MK/KG),0/10
same,% INHIBITION,[6]; dose 200 (MK/KG),100%
same,TOXIC/TOTAL,[6]; dose 200 (MK/KG),0/10
"Nc1nc(O)c2c(n1)NCC(CCc1ccc(C(=O)N[C@@H](CCC(=O)O)C(=O)O)c(Cl)c1)C2 (stereo partly drawn) [F, N-(2-chloro-4-[2-(2-amino-4-hydroxy-5,6,7,8-tetrahydropyrido[2,3-d]pyrimidin-6-yl)ethyl]benzoyl)-L-glutamic acid]",IC50,[3],0.027 µg/mL
Nc1nc2ncc(CNc3ccc(C(=O)N[C@@H](CCC(=O)O)C(=O)O)cc3)cc2c(=O)[nH]1 [5-Deazafolic acid],cytotoxicity,[1],only weakly cytotoxic
"Nc1nc(N)c2nc(CCc3ccc(C(=O)N[C@@H](CCC(=O)O)C(=O)O)cc3)ccc2n1 [8,10-Dideazaaminopterin]",antimetabolic activity,[1],active
Nc1nc2ncc(CCc3ccc(C(=O)N[C@@H](CCC(=O)O)C(=O)O)cc3)nc2c(=O)[nH]1 [10-deazafolic acid],antimetabolic activity,[1],no significant activity
"Nc1nc2ccc(CCc3ccc(C(=O)N[C@@H](CCC(=O)O)C(=O)O)cc3)cc2c(=O)[nH]1 [5,8,10-trideazafolic acid]",activity against mouse L1210 leukemia,[2],only marginal activity
